Assay results reported in the supplement of paper PMC11451515.

Tested on: NOMO1
Test: cell viability relative to DMSO control; higher = less cytotoxic
Conditions: 48 h
Method in brief: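 NOMO1 or SEM (500 cells/well) or P12-Ichikawa (1000 cells/well) leukemia cells were adapted for at least four passages in each medium. They were seeded in 1536-well plates (5 μl) and pin-dosed with library compounds in DMSO over an 11-point threefold series, 47 μM to 0.79 nM. CellTiter-Glo One luminescence was read after 48 h at 37°C. Viability is the per-plate percentage relative to DMSO wells, with cell-free wells as background.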

[1] = HPLM + 10% dialyzed FBS, 0.000781 µM
[2] = HPLM + 10% dialyzed FBS, 0.00234 µM
[3] = HPLM + 10% dialyzed FBS, 0.00702 µM
[4] = HPLM + 10% dialyzed FBS, 0.0211 µM
[5] = HPLM + 10% dialyzed FBS, 0.0632 µM
[6] = HPLM + 10% dialyzed FBS, 0.19 µM
[7] = HPLM + 10% dialyzed FBS, 0.569 µM
[8] = HPLM + 10% dialyzed FBS, 1.71 µM
[9] = HPLM + 10% dialyzed FBS, 5.12 µM
[10] = HPLM + 10% dialyzed FBS, 15.4 µM
[11] = HPLM + 10% dialyzed FBS, 46.1 µM
[12] = RPMI 5 mM glucose + 10% FBS, 0.000781 µM
[13] = RPMI 5 mM glucose + 10% FBS, 0.00234 µM
[14] = RPMI 5 mM glucose + 10% FBS, 0.00702 µM
[15] = RPMI 5 mM glucose + 10% FBS, 0.0211 µM
[16] = RPMI 5 mM glucose + 10% FBS, 0.0632 µM
[17] = RPMI 5 mM glucose + 10% FBS, 0.19 µM
[18] = RPMI 5 mM glucose + 10% FBS, 0.569 µM
[19] = RPMI 5 mM glucose + 10% FBS, 1.71 µM
[20] = RPMI 5 mM glucose + 10% FBS, 5.12 µM
[21] = RPMI 5 mM glucose + 10% FBS, 15.4 µM
[22] = RPMI 5 mM glucose + 10% FBS, 46.1 µM
[23] = RPMI 5 mM glucose + 10% dialyzed FBS, 0.000781 µM
[24] = RPMI 5 mM glucose + 10% dialyzed FBS, 0.00234 µM
[25] = RPMI 5 mM glucose + 10% dialyzed FBS, 0.00702 µM
[26] = RPMI 5 mM glucose + 10% dialyzed FBS, 0.0211 µM
[27] = RPMI 5 mM glucose + 10% dialyzed FBS, 0.0632 µM
[28] = RPMI 5 mM glucose + 10% dialyzed FBS, 0.19 µM
[29] = RPMI 5 mM glucose + 10% dialyzed FBS, 0.569 µM
[30] = RPMI 5 mM glucose + 10% dialyzed FBS, 1.71 µM
[31] = RPMI 5 mM glucose + 10% dialyzed FBS, 5.12 µM
[32] = RPMI 5 mM glucose + 10% dialyzed FBS, 15.4 µM
[33] = RPMI 5 mM glucose + 10% dialyzed FBS, 46.1 µM

Cc1ccc(C(=O)Nc2cccc(C(F)(F)F)c2)cc1Nc1nc(-c2cccnc2)nc2c1cnn2C
cell viability [1]: 87.4%
cell viability [2]: 80.6%
cell viability [3]: 97.4%
cell viability [4]: 97.6%
cell viability [5]: 88.4%
cell viability [6]: 104%
cell viability [7]: 74%
cell viability [8]: 56.5%
cell viability [9]: 71.2%
cell viability [10]: 67.8%
cell viability [11]: 78%
cell viability [12]: 83.5%
cell viability [13]: 84.8%
cell viability [14]: 94.5%
cell viability [15]: 77.4%
cell viability [16]: 85.1%
cell viability [17]: 87.4%
cell viability [18]: 77.6%
cell viability [19]: 84.9%
cell viability [20]: 87.7%
cell viability [21]: 73.4%
cell viability [22]: 76.4%
cell viability [23]: 84.8%
cell viability [24]: 86.2%
cell viability [25]: 87.6%
cell viability [26]: 87.2%
cell viability [27]: 90.7%
cell viability [28]: 89.1%
cell viability [29]: 83.7%
cell viability [30]: 77.4%
cell viability [31]: 93.8%
cell viability [32]: 77.6%
cell viability [33]: 85.3%

CCCOc1ccc(C(=O)OCCN(CC)CC)cc1N
cell viability [1]: 109%
cell viability [2]: 124%
cell viability [3]: 124%
cell viability [4]: 121%
cell viability [5]: 140%
cell viability [6]: 130%
cell viability [7]: 132%
cell viability [8]: 139%
cell viability [9]: 121%
cell viability [10]: 112%
cell viability [11]: 106%
cell viability [12]: 107%
cell viability [13]: 115%
cell viability [14]: 122%
cell viability [15]: 123%
cell viability [16]: 107%
cell viability [17]: 120%
cell viability [18]: 113%
cell viability [19]: 111%
cell viability [20]: 123%
cell viability [21]: 118%
cell viability [22]: 118%
cell viability [23]: 111%
cell viability [24]: 127%
cell viability [25]: 115%
cell viability [26]: 118%
cell viability [27]: 120%
cell viability [28]: 128%
cell viability [29]: 121%
cell viability [30]: 119%
cell viability [31]: 117%
cell viability [32]: 131%
cell viability [33]: 121%

COC1=CC=C(C=C1)/C2=C(O)/C(=O)C3=C(O)C=C(O)C(=C3O2)CC=C(C)C
cell viability [1]: 105%
cell viability [2]: 120%
cell viability [3]: 122%
cell viability [4]: 114%
cell viability [5]: 132%
cell viability [6]: 117%
cell viability [7]: 115%
cell viability [8]: 127%
cell viability [9]: 124%
cell viability [10]: 104%
cell viability [11]: 130%

Nc1nc(F)nc2c1ncn2[C@@H]1O[C@H](COP(=O)(O)O)[C@@H](O)[C@@H]1O
cell viability [1]: 121%
cell viability [2]: 123%
cell viability [3]: 135%
cell viability [4]: 134%
cell viability [5]: 123%
cell viability [6]: 125%
cell viability [7]: 129%
cell viability [8]: 126%
cell viability [9]: 109%
cell viability [10]: 47.3%
cell viability [11]: 21%
cell viability [12]: 112%
cell viability [13]: 112%
cell viability [14]: 130%
cell viability [15]: 123%
cell viability [16]: 125%
cell viability [17]: 115%
cell viability [18]: 133%
cell viability [19]: 118%
cell viability [20]: 117%
cell viability [21]: 109%
cell viability [22]: 38%

COc1cc2c(cc1OC)[C@@H]1Cc3ccc(OC)c(OC)c3CN1CC2
cell viability [1]: 120%
cell viability [2]: 129%
cell viability [3]: 115%
cell viability [4]: 105%
cell viability [5]: 118%
cell viability [6]: 110%
cell viability [7]: 112%
cell viability [8]: 117%
cell viability [9]: 114%
cell viability [10]: 99.4%
cell viability [11]: 31.2%
cell viability [12]: 98.1%
cell viability [13]: 101%
cell viability [14]: 94.8%
cell viability [15]: 97.1%
cell viability [16]: 106%
cell viability [17]: 104%
cell viability [18]: 97.6%
cell viability [19]: 101%
cell viability [20]: 102%
cell viability [21]: 92.7%
cell viability [22]: 34.3%
cell viability [23]: 112%
cell viability [24]: 114%
cell viability [25]: 116%
cell viability [26]: 107%
cell viability [27]: 96.5%
cell viability [28]: 109%
cell viability [29]: 95.6%
cell viability [30]: 97.8%
cell viability [31]: 106%
cell viability [32]: 103%
cell viability [33]: 56%

CC(C)c1onc(-c2c(Cl)cccc2Cl)c1COc1ccc(/C=C/c2cccc(C(=O)O)c2)c(Cl)c1
cell viability [23]: 128%
cell viability [24]: 124%
cell viability [25]: 124%
cell viability [26]: 139%
cell viability [27]: 114%
cell viability [28]: 133%
cell viability [29]: 129%
cell viability [30]: 132%
cell viability [31]: 128%
cell viability [32]: 109%
cell viability [33]: 107%

N[S+](=O)([O-])c1ccc(Nc2nc(OCC3CCCCC3)c3[nH]cnc3n2)cc1
cell viability [1]: 111%
cell viability [2]: 131%
cell viability [3]: 117%
cell viability [4]: 116%
cell viability [5]: 119%
cell viability [6]: 73.7%
cell viability [7]: 38.2%
cell viability [8]: 41.3%
cell viability [9]: 58.2%
cell viability [10]: 56.1%
cell viability [11]: 42.9%
cell viability [12]: 97.1%
cell viability [13]: 106%
cell viability [14]: 109%
cell viability [15]: 107%
cell viability [16]: 103%
cell viability [17]: 103%
cell viability [18]: 66.9%
cell viability [19]: 28.4%
cell viability [20]: 24.3%
cell viability [21]: 31.4%
cell viability [22]: 47.1%
cell viability [23]: 119%
cell viability [24]: 115%
cell viability [25]: 118%
cell viability [26]: 117%
cell viability [27]: 104%
cell viability [28]: 116%
cell viability [29]: 78.2%
cell viability [30]: 35.9%
cell viability [31]: 35%
cell viability [32]: 32%
cell viability [33]: 67.1%

CN(C)C/C=C/C(=O)Nc1ccc(C(=O)Nc2cccc(Nc3ncc(Cl)c(-c4c[nH]c5ccccc45)n3)c2)cc1
cell viability [1]: 78.8%
cell viability [2]: 99.4%
cell viability [3]: 101%
cell viability [4]: 94.6%
cell viability [5]: 88.4%
cell viability [6]: 85.2%
cell viability [7]: 5.25%
cell viability [8]: 4.49%
cell viability [9]: 4.42%
cell viability [10]: 3.89%
cell viability [11]: 3.78%
cell viability [12]: 81.9%
cell viability [13]: 91.4%
cell viability [14]: 84.4%
cell viability [15]: 93.8%
cell viability [16]: 93.5%
cell viability [17]: 98.7%
cell viability [18]: 5.96%
cell viability [19]: 4.95%
cell viability [20]: 4.62%
cell viability [21]: 3.68%
cell viability [22]: 3.47%
cell viability [23]: 80%
cell viability [24]: 87.7%
cell viability [25]: 91.2%
cell viability [26]: 94.7%
cell viability [27]: 95%
cell viability [28]: 73.9%
cell viability [29]: 3.8%
cell viability [30]: 3.8%
cell viability [31]: 3.2%
cell viability [32]: 2.9%
cell viability [33]: 3.15%

Cc1cc(Nc2ncc3c(n2)N(C)C(=O)N(c2cc(NC(=O)c4cccc(C(F)(F)F)c4)ccc2C)C3)n(C)n1
cell viability [1]: 90.6%
cell viability [2]: 134%
cell viability [3]: 123%
cell viability [4]: 116%
cell viability [5]: 134%
cell viability [6]: 111%
cell viability [7]: 90.5%
cell viability [8]: 56.7%
cell viability [9]: 32.2%
cell viability [10]: 25.9%
cell viability [11]: 7.8%
cell viability [12]: 99.6%
cell viability [13]: 111%
cell viability [14]: 132%
cell viability [15]: 156%
cell viability [16]: 132%
cell viability [17]: 130%
cell viability [18]: 146%
cell viability [19]: 70.6%
cell viability [20]: 43.8%
cell viability [21]: 29.6%
cell viability [22]: 10.7%
cell viability [23]: 113%
cell viability [24]: 115%
cell viability [25]: 123%
cell viability [26]: 134%
cell viability [27]: 134%
cell viability [28]: 132%
cell viability [29]: 115%
cell viability [30]: 60.2%
cell viability [31]: 38.7%
cell viability [32]: 32.7%
cell viability [33]: 17.7%

C[S+](=O)([O-])Oc1ccc2c(NC(N)=O)c(C(=O)c3ccc(Cl)cc3Cl)oc2c1
cell viability [1]: 115%
cell viability [2]: 103%
cell viability [3]: 114%
cell viability [4]: 113%
cell viability [5]: 140%
cell viability [6]: 139%
cell viability [7]: 127%
cell viability [8]: 128%
cell viability [9]: 105%
cell viability [10]: 100%
cell viability [11]: 42.7%
cell viability [12]: 105%
cell viability [13]: 111%
cell viability [14]: 104%
cell viability [15]: 115%
cell viability [16]: 120%
cell viability [17]: 119%
cell viability [18]: 125%
cell viability [19]: 117%
cell viability [20]: 115%
cell viability [21]: 106%
cell viability [22]: 50.3%
cell viability [23]: 127%
cell viability [24]: 111%
cell viability [25]: 122%
cell viability [26]: 126%
cell viability [27]: 119%
cell viability [28]: 116%
cell viability [29]: 115%
cell viability [30]: 128%
cell viability [31]: 135%
cell viability [32]: 105%
cell viability [33]: 76.8%
